Laboratory results published in PMC7792996, “Crystal structure of death-associated protein kinase 1 in complex with the dietary compound resveratrol” (IUCrJ, 2021).

Tests used:
[1] = target: T1, Death-associated protein kinase 1 (DAPK1) (Homo sapiens, UniProt P53355); assay: fluorescent probe saturation binding (BC50), competed by RSV
T1 construct: catalytic domain, residues 1–285

[2] = target: T1, Death-associated protein kinase 1 (DAPK1); assay: malachite green intrinsic ATPase assay at […] ATP; assay type: biochemical

T1 sequence (P53355 1-285): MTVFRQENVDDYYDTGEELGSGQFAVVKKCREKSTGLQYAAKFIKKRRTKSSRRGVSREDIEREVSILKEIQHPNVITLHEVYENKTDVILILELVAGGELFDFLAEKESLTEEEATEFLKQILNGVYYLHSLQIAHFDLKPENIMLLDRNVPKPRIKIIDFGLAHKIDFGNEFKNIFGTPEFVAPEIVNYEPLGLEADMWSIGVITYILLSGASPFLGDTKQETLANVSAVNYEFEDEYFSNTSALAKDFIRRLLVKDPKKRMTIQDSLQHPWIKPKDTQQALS

Compound | Kd [1] [µM] | malachite green intrinsic ATPase assay at 30 μM ATP [2]
O=S(=O)(O)c1cccc2cccc(Nc3ccccc3)c12 [ANS, 8-anilinonaphthalene-1-sulfonic acid] | 7.3 | 
O=c1c(O)c(-c2ccc(O)cc2)oc2cc(O)cc(O)c12 [KAE, kaempferol] |  | The inhibitory potency of KAE was higher than that of API
